Measured values reported in US20200017495A1, “NOVEL HETEROCYCLIC COMPOUNDS AND THEIR USE IN PREVENTING OR TREATING BACTERIAL INFECTIONS” (priority 2017, published 2020).

What was measured:
[1] = target: KPC-2 (Klebsiella pneumoniae, UniProt Q9F663); assay: β-lactamase inhibitory activity, IC50 (nitrocefin hydrolysis); format: biochemical
Protocol: (§1) Method 1: β-Lactamase Inhibitory Activity, Determination of IC50 (Table 1)
(§2) Enzymes were cloned in E. coli expression vector, expressed and purified in house using classical procedures. […] After 30 min of pre-incubation at room temperature, 15 μL of NCF (100 μM final) were finally added in each well. […] Enzyme activity was obtained by subtracting the background from the final signal, and was converted to enzyme inhibition using non inhibited wells. IC50 curves were fitted to a classical Langmuir equilibrium model with Hill slope using XLFIT (IDBS).

[2] = target: SHV-12 (Klebsiella pneumoniae, UniProt P0AD64, E235K/G234S/L31Q); assay: as above; format: biochemical
Protocol: as §1, §2

[3] = Rat intraduodenal bioavailability determination; format: in vivo, Male Sprague-Dawley (SD) rats; settings: 10 mg/kg, AF2 titrated in plasma
Protocol: Method 3: Rat Intraduodenal Bioavailability Determination (Table 7) Intravenous (jugular) or intraduodenal catheterized Male Sprague-Dawley (SD) rats (250-270 g) were obtained from Janvier Labs (Le Genest-Saint-Isle, France). All rats were housed in a −temperature (20±2° C.) and −humidity (55%±10%) controlled room with 12h light/dark cycle, and were acclimatized for at least 4 days before experimentation. Water and food were available ad libitum throughout the study. All rats were handled in accordance with the institutional and national guidelines for the care and use of laboratory animals. Rats were allocated to two groups based on the administration route: intravenous or intraduodenal administration (n=3/group). In the intravenous administration study, drugs (10 mg/kg in phosphate buffer 10 mM, pH7.4) were administered under isoflurane anesthesia via the catheter placed in the jugular vein. […] The pharmacokinetic parameters were calculated using XLfit (IDBS) and Excel (Microsoft) software, using standard non-compartmental methods. The intraduodenal bioavailability was calculated by dividing the AUC obtained from the intraduodenal administration by the AUC obtained from the intravenous administration.

[4] = target: OXA-23 (Acinetobacter baumannii, UniProt Q9L4P2); assay: β-lactamase inhibitory activity, IC50 (nitrocefin hydrolysis); format: biochemical
Protocol: as §2

[5] = target: SAU PC1 (Staphylococcus aureus, UniProt P00807); assay: as above; format: biochemical, S. aureus
Protocol: as §1, §2

[6] = target: P99 ampC (Enterobacter cloacae, UniProt P05364); assay: as above; format: biochemical
Protocol: as §1, §2

[7] = target: OXA-1 (Escherichia coli, UniProt P13661); assay: as above; format: biochemical
Protocol: as §2

[8] = target: OXA-15 (Pseudomonas aeruginosa, UniProt Q51574); assay: as above; format: biochemical
Sequence of OXA-15 (Q51574 22-275): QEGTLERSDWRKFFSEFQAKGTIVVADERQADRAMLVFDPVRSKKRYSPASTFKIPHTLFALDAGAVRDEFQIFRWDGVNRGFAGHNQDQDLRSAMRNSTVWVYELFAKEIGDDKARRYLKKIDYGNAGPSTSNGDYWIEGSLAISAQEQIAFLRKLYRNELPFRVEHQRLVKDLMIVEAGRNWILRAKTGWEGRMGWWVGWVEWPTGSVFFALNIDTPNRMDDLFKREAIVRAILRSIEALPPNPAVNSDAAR
Protocol: as §2

Sequence of P99 ampC (P05364 21-381): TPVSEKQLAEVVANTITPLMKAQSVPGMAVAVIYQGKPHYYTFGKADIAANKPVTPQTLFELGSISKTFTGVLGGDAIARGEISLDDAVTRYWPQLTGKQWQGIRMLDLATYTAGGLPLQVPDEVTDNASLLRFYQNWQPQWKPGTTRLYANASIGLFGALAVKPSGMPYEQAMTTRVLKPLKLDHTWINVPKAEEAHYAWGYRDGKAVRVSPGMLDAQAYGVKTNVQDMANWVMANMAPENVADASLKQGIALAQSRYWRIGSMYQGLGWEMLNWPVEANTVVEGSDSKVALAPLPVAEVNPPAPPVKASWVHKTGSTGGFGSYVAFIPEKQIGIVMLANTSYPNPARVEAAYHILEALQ
Sequence of OXA-1 (P13661 26-276): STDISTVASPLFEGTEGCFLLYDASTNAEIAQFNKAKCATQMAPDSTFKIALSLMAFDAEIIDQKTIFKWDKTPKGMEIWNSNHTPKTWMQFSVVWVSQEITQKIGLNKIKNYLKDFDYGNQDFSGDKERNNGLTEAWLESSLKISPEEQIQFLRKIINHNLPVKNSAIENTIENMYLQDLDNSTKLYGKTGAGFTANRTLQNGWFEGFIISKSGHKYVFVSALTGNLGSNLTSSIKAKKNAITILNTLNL
Sequence of KPC-2 (Q9F663 25-293 limits assumed): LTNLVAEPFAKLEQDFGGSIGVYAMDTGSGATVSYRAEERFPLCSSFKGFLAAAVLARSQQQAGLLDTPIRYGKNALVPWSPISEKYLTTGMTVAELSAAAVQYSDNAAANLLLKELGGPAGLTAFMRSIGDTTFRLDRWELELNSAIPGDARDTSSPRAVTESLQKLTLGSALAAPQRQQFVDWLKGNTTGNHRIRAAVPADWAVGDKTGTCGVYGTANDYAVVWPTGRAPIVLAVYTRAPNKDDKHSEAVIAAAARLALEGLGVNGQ
Sequence of SHV-12 (P0AD64 22-286 L31Q/G234S/E235K): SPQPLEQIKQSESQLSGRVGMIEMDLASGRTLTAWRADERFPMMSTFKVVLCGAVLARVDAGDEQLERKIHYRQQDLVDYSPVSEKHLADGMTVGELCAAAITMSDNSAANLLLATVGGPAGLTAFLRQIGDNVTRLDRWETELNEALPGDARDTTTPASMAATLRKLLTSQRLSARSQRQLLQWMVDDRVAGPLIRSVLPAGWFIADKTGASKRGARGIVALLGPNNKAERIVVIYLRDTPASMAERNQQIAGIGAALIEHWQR
Sequence of OXA-23 (Q9L4P2 18-273): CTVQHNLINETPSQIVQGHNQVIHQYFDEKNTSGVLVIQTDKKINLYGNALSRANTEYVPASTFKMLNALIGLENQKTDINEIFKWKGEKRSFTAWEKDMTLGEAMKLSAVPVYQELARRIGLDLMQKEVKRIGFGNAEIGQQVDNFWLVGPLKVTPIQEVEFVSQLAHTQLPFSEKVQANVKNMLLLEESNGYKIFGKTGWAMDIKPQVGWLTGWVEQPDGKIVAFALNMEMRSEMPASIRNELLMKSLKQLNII
Sequence of SAU PC1 (P00807 25-281): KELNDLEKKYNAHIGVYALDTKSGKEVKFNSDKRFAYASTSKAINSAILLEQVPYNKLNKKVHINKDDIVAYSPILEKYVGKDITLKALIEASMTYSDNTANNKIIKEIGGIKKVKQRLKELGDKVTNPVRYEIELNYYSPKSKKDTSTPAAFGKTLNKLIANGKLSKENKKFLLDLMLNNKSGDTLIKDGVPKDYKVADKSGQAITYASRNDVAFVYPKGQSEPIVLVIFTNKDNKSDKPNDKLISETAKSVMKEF

| Structure (SMILES) | IC50 [1] [nM] | IC50 [2] [nM] | AUC 0-∞ ([3]; intravenous) [ng·h/mL] | AUC(0-inf) ([3]; male, Sprague-Dawley, plasma, iv) [ng·h/mL] | IC50 [4] [nM] | IC50 [5] [nM] | IC50 [6] [nM] | IC50 [7] [nM] | IC50 [8] [nM] |
| --- | --- | --- | --- | --- | --- | --- | --- | --- | --- |
| O=C1N2CC(c3ncco3)=CC(C2)N1OC(F)(F)C(=O)[O-].[Li+] (stereo not shown) [AF2] | 69 | 4.1 | 10789 | 11000 | 7400 | 220 | 730 | 2100 | 140 |
| O=C1N2CC(n3cccn3)=CC(C2)N1OC(F)(F)C(=O)[O-].[Li+] (stereo not shown) [AF3] | 77 | 4.3 |  |  | 9600 | 120 | 270 | 1100 | 120 |
